pIC50: −log10 of the molar value.

One test has as its target T1, HDAC2 (Homo sapiens, UniProt Q92769).
T1 construct: purchased BPS Bioscience 50002
Put plainly: HDAC-Glo I/II assay, HDAC2. It counts as biochemical. The note with it: recombinant human HDAC2, HDAC-Glo; read-out: pIC50 HDAC2 Glo (converted).

A further test addresses T2, HDAC3/NcoR2 complex (Homo sapiens, UniProt O15379).
T2 construct: purchased BPS Bioscience 50003
Put plainly: HDAC-Glo I/II assay, HDAC3/NcoR2 complex. The note with it: recombinant human HDAC3/NcoR2 complex, read-out: pIC50 HDAC3 Glo (converted). The test is classed as biochemical.

A further test has as its target T3, HDAC8 (Homo sapiens, UniProt Q9BY41).
T3 sequence (Q9BY41 1-377): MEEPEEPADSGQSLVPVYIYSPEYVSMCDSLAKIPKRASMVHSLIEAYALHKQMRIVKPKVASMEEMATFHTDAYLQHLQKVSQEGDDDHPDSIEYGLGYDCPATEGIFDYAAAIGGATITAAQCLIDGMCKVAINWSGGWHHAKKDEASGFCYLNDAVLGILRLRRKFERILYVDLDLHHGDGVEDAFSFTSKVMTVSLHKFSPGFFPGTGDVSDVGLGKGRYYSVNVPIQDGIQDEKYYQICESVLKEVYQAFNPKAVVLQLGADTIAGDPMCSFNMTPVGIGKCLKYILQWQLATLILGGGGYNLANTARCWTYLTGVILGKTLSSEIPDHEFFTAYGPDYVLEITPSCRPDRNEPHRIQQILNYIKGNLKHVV
Put plainly: HDAC-Glo I/II assay, HDAC8. It counts as biochemical. On the set-up: purchased BPS Bioscience 50008. Particulars: recombinant human HDAC8, HDAC-Glo; read-out: pIC50 HDAC8 Glo (converted).

The target of the next test is T4, HDAC6 (Homo sapiens, UniProt Q9UBN7).
T4 construct: purchased BPS Bioscience 50006
T4 sequence (Q9UBN7 1-1215): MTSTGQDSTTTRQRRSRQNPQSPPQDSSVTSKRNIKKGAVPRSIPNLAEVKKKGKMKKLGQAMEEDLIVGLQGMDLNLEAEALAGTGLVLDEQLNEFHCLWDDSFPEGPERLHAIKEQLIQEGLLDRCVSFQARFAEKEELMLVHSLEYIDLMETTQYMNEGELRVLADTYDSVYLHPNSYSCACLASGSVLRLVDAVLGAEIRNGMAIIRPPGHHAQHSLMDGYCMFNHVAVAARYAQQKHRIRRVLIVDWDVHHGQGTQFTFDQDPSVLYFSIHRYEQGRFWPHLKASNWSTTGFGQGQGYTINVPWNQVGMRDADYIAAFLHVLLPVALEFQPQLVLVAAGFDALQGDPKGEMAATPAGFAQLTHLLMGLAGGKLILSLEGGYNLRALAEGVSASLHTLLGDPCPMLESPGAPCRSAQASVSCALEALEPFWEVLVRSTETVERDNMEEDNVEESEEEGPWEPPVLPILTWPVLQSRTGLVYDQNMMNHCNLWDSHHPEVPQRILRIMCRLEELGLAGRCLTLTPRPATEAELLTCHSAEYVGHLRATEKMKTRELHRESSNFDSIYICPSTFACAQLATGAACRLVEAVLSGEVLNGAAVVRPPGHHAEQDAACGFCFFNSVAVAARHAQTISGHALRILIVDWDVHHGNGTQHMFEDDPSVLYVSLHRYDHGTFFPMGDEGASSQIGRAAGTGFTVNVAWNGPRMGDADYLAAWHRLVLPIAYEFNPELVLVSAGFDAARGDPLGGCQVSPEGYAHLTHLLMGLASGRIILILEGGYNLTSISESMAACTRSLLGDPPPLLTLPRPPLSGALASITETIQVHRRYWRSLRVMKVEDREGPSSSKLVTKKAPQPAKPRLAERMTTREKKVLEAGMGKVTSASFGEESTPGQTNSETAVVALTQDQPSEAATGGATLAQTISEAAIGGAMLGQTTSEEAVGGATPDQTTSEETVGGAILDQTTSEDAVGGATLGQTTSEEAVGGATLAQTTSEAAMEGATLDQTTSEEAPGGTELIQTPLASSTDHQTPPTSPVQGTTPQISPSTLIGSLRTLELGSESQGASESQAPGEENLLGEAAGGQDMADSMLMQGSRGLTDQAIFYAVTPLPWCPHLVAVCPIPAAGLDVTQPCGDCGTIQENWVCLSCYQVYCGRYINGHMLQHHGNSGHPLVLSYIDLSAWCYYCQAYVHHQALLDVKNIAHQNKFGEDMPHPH
In words: HDAC-Glo I/II assay, HDAC6. It counts as biochemical. The note with it: recombinant human HDAC6, HDAC-Glo; read-out: pIC50 HDAC6 Glo (converted).

Test [1] addresses T5, HDAC10-nanoluciferase fusion in HeLa cells (Homo sapiens, UniProt Q969S8).
T5 sequence (Q969S8 1-669): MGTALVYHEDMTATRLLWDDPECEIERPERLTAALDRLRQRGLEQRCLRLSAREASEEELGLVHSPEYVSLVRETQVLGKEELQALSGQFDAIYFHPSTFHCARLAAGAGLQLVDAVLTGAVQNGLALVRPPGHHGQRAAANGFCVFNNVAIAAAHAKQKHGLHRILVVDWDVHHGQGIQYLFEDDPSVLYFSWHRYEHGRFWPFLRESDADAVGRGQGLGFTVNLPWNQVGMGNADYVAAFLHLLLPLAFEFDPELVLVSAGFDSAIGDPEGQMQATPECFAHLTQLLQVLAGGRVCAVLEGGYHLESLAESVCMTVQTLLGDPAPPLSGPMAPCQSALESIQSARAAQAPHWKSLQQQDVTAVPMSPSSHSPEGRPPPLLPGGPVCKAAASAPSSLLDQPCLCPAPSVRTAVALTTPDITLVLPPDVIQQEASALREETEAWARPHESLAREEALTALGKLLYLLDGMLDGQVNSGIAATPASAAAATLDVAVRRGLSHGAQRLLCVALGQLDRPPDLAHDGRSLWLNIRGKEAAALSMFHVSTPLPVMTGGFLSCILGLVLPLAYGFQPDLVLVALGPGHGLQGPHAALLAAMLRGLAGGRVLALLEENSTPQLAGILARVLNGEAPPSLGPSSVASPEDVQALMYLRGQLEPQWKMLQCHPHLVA
In words: BRET intracellular target engagement assay, HDAC10. Particulars: for HDAC10/6 fold selectivity (BRET): HDAC10 over HDAC6, from BRET.

For a further test, the target named is T6, TwinStrep-GST-HDAC10 (Homo sapiens, UniProt Q969S8).
T6 construct: made in house; host or cells: Sf21 insect cells (baculovirus, pFastBac1)
T6 sequence (Q969S8 1-669): T5 sequence (Q969S8 1-669)
Put plainly: HDAC10 TR-FRET assay (Tubastatin-AF647-Tracer displacement). It counts as binding. The note with it: TR-FRET, 60 min at rt; read-out: pIC50 HDAC10 FRET (converted).

In another test the target is T7, HDAC1 (Homo sapiens, UniProt Q13547).
T7 construct: purchased BPS Bioscience 50051
T7 sequence (Q13547 whole entry): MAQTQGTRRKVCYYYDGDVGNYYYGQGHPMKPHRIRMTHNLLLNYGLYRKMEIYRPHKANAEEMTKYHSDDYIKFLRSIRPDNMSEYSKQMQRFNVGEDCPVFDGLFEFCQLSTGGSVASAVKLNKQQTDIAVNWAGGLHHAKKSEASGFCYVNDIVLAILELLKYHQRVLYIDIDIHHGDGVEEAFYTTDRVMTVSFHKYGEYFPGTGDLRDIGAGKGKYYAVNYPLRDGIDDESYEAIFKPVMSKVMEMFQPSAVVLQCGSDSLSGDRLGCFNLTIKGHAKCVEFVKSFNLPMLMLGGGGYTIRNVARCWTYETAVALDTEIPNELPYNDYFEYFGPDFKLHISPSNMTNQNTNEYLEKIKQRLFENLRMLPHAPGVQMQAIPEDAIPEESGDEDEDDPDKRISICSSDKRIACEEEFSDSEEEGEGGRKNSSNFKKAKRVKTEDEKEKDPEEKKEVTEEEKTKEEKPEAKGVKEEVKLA
In words: HDAC-Glo I/II assay, HDAC1. The test is classed as biochemical. Particulars: recombinant human HDAC1, HDAC-Glo; read-out: pIC50 HDAC1 Glo (converted).

Test [2] concerns the target T8, HDAC6 (2nd catalytic domain)-nanoluciferase fusion in HeLa cells (Homo sapiens, UniProt Q9UBN7).
T8 sequence (Q9UBN7 482-800 limits assumed): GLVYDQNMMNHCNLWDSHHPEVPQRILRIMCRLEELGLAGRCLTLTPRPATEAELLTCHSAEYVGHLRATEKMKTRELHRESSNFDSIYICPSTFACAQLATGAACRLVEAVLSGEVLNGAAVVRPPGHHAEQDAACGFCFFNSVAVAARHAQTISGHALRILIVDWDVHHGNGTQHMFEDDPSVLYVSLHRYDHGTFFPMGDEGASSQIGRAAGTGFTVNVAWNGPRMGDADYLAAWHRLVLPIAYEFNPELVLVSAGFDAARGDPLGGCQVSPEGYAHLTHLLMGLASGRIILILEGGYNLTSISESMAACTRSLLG
Put plainly: BRET intracellular target engagement assay, HDAC6.

T2 sequence (O15379 whole entry): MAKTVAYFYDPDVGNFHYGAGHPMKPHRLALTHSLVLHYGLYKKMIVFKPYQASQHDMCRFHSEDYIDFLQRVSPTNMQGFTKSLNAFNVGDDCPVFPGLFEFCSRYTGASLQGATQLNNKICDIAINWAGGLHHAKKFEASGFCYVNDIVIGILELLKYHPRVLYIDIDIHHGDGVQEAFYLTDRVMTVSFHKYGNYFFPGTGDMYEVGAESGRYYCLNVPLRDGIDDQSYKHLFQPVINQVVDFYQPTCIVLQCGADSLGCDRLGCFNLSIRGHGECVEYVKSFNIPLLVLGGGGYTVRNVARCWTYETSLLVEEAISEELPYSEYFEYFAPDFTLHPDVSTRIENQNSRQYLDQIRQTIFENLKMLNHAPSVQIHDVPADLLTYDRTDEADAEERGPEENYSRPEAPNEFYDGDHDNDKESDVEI
T2 sequence (Q9Y618 395-489 partner limits assumed): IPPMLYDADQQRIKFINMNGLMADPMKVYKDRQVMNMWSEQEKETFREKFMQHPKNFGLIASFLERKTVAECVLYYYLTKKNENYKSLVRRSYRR
T1 sequence (Q92769 whole entry): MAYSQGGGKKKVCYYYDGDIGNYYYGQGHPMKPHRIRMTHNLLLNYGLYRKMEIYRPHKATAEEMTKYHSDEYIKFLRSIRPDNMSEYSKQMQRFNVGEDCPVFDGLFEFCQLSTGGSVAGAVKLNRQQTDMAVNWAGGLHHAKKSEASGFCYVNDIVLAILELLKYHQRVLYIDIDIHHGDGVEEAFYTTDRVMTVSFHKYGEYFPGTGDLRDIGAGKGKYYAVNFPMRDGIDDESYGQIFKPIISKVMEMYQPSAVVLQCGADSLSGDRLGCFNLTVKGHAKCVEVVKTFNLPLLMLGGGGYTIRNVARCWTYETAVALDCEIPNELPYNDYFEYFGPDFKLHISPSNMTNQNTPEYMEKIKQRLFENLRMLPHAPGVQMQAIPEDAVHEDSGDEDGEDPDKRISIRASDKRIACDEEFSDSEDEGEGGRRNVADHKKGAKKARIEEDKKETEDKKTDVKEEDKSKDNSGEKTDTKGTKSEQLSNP

Take `CC(C)N(CCCC(=O)NO)CCC(=O)Nc1ccccc1` [DKFZ-715, 4-(Isopropyl(3-oxo-3-(phenylamino)propyl)amino)-N-hydroxybutanamide]: the IC50 is > 200 µM at HDAC2; < 200 µM on HDAC3/NcoR2 complex; 5.01 µM on HDAC8; 12.6 µM at HDAC6; 0.631 µM at TwinStrep-GST-HDAC10; 398 µM on HDAC1. Also, the pIC50 in test [1] is 5.70; in test [2], < 4.40. Further, the “HDAC10/6 fold selectivity (BRET)” value in test [1] was >21 fold.
Take `CN(CCCC(=O)NO)CCNC(=O)c1c2ccccc2cc2ccccc12` [DKFZ-771, N-(2-((4-(Hydroxyamino)-4-oxobutyl)(methyl)amino)ethyl)anthracene-9-carboxamide]: the IC50 on HDAC2 is 3.98 µM; on HDAC8, 0.794 µM; at HDAC6, 0.631 µM; at HDAC1, 2 µM. Further, the pIC50 in test [2] was 5.40.
Take `O=C(CC1CN(CCC(=O)Nc2ccccc2)C1)NO` [DKFZ-770, 3-(3-(2-(Hydroxyamino)-2-oxoethyl)azetidin-1-yl)-N-phenylpropanamide]: the IC50 was 79.4 µM on HDAC2; > 100 µM at HDAC3/NcoR2 complex; 20 µM at HDAC8; 6.31 µM on HDAC6; 0.158 µM on TwinStrep-GST-HDAC10; 50.1 µM on HDAC1. The pIC50 is 5.70 in test [1] and < 4.40 in test [2]. The “HDAC10/6 fold selectivity (BRET)” value in test [1] is on record as >20 fold.
With `CN(CCCC(=O)NO)CCNC(=O)c1ccc(/C(N)=N/O)cc1` [DKFZ-750, N-(2-((4-(Hydroxyamino)-4-oxobutyl)(methyl)amino)ethyl)-4-(M-hydroxycarbamimidoyl)benzamide], the IC50 on HDAC2 was > 100 µM; at HDAC3/NcoR2 complex it was > 100 µM; on HDAC8 it was ~25.1 µM; on HDAC6, 6.31 µM; on TwinStrep-GST-HDAC10, 0.02 µM; on HDAC1, 15.8 µM. Also, the negative-log IC50 (pIC50) in test [1] was 5.70; in test [2], < 4.40. For the same compound, the “HDAC10/6 fold selectivity (BRET)” value in test [1] was >21 fold.
`CN(CCCC(=O)NO)CCNC(=O)c1cccc2cn[nH]c12` [DKFZ-757, N-(2-((4-(Hydroxyamino)-4-oxobutyl)(methyl)amino)ethyl)-1H-indazole-7-carboxamide]: the IC50 at HDAC2 is > 100 µM; on HDAC3/NcoR2 complex, > 100 µM; at HDAC8, ~25.1 µM; on HDAC6, 6.31 µM; at TwinStrep-GST-HDAC10, 0.00794 µM; at HDAC1, 10 µM. Moreover, the pIC50 in test [1] was 7.20; in test [2], 4.60. Besides, the “HDAC10/6 fold selectivity (BRET)” value in test [1] came out at 423 fold.
As to `CCCN(CCCC(=O)NO)CCC(=O)Nc1ccccc1` [DKFZ-716, 4-(Propyl(3-oxo-3-(phenylamino)propyl)amino)-N-hydroxybutanamide], the IC50 was > 200 µM at HDAC2; ~200 µM at HDAC3/NcoR2 complex; 7.94 µM on HDAC8; 5.01 µM at HDAC6; 0.316 µM at TwinStrep-GST-HDAC10; 79.4 µM at HDAC1. Also, the pIC50 in test [1] was 6.00; in test [2] it was < 4.40. Also, the “HDAC10/6 fold selectivity (BRET)” value in test [1] was ~366 fold.
`O=C(CCCN(CCC(=O)Nc1ccccc1)C1CC1)NO` [DKFZ-724, 4-(Cyclopropyl(3-oxo-3-(phenylamino)propyl)amino)-N-hydroxybutanamide]: the IC50 was > 200 µM on HDAC2; 126 µM on HDAC3/NcoR2 complex; 2 µM at HDAC8; 3.16 µM on HDAC6; 0.251 µM on TwinStrep-GST-HDAC10; 39.8 µM on HDAC1. In addition, the pIC50 in test [1] is 6.40; in test [2], < 4.40. For the same compound, the “HDAC10/6 fold selectivity (BRET)” value in test [1] is reported as >110 fold.
As for `CCCCN(CCCC(=O)NO)CCC(=O)Nc1ccccc1` [DKFZ-717, 4-(Butyl(3-oxo-3-(phenylamino)propyl)amino)-N-hydroxybutanamide], the IC50 on HDAC2 was > 200 µM; on HDAC3/NcoR2 complex, ~200 µM; at HDAC8 it was 7.94 µM; at HDAC6 it was 5.01 µM; on TwinStrep-GST-HDAC10, 0.631 µM; on HDAC1 it was 79.4 µM. For the same compound, the values for the negative-log IC50 (pIC50) in test [1] and in test [2] were 5.80 and < 4.40, respectively. Also, the “HDAC10/6 fold selectivity (BRET)” value in test [1] is 38 fold.
For `CN(CCCC(=O)NO)CCCC(=O)Nc1ccccc1` [DKFZ-775, N-Hydroxy-4-(methyl(4-oxo-4-(phenylamino)butyl)amino)butanamide], the IC50 on HDAC3/NcoR2 complex was > 100 µM; on HDAC8, 25.1 µM; at HDAC6 it was 12.6 µM; on HDAC1, 50.1 µM. For the same compound, the pIC50 in test [2] was < 4.40.

The record behind these values is patent US20220151962A1, “NOVEL INHIBITORS OF HISTONE DEACETYLASE 10” (Deutsches Krebsforschungszentrum, priority 2019, published 2022).
